These results are taken from US20230270764A1, “COMPOSITION COMPRISING CANNABINOIDS, TERPENES, AND FLAVONOIDS FOR TREATING DEPRESSION” (priority 2020, published 2023).

Read-outs that look alike come from different tables or passages of the source.

The test system of experiment [1] is LPS-injected mice. The experiment is described as follows: Sucrose preference test in the LPS-induced model of depression. Type of experiment: in vivo. To be noted: Example 9; male C57BL/6, i.p. 1 h before LPS 330 µg/kg; mg/kg: CBD 30; CBDA 1 or 5; BCP 50; kaempferol 30; CBD 30 plus THC 10; CBD 30 plus kaempferol 30. From the text:
In a preliminary screening experiment, subjects were 4-6 months-old male C57BL/6 (Jackson Laboratories, USA). Animals were housed 2-3/cage, kept in an air-conditioned room (23+°C) and given ad libitum access to food and water. The mice were kept in a reversed light/dark cycle, with lights off from 7 a.m. to 7 p.m. All experiments were approved by the Hebrew University of Jerusalem Ethics Committee on Animal Care and Use. In preparation for the Sucrose Preference Test, mice were habituated 2-3 times to sucrose drinking, by exposing them overnight to two graduated tubes, one containing water and the other containing sucrose solution (1%, w/v). Water and sucrose consumption were measured, and sucrose preference was computed by dividing the amount of sucrose consumed by drinking (ml sucrose) by the total drinking volume (ml of sucrose + water). One day later, the weight of the mice and the food in their cages was weighed for later analysis of food consumption and body weight changes. Groups of mice were injected intraperitoneally (i.p.) with either vehicle (cremophor, ethanol and PBS, 1:1:18 (v/v/v)) or a cannabinoid-based formulation (by itself or with another cannabinoid, or a terpene or a flavonoid). One hour later, each of these groups was injected with LPS (330 µg/kg). All injections were administered at a dose of 10 ml/kg. Four hours following the LPS injection, mice were tested in the Open-Field Test. In this test, the measured locomotor activity reflects not only motor capacity, but particularly the innate motivation for spatial exploration (which increases the distance travelled) and the anxiety level (which reduces the distance travelled, in general, and particularly the distance and time spent in the center of the open field). Each subject was placed near one of the walls of a white 50 X 50 cm^2 arena with 40 cm high walls. The distance travelled (cm), the velocity of the movement (cm/second), the time spent (seconds), distance travelled (cm) in the center area of the arena, as well as the number of entries from the perimeter area into the center of the arena were automatically measured over a 4-minute period, using EthoVision XT video tracking system and software (Noldus, The Netherlands). Twenty-four hours after the LPS injection, mice were tested in the Social Exploration Test. […] Social exploration, defined as the time of near contact between the nose of the subject and the juvenile in the small cage was recorded for 4 min, using computerized in-house software. Sucrose preference was assessed, as described above, between 8 to 27 hr post LPS injection. Body weight and weight of the food were measured two hours before the LPS injection, and again after 24 hours, and the change in body weight and food consumption were calculated. […]

For experiment [2], the system named is BV2 microglial cells. In words: LPS-induced TNFα secretion by BV2 microglia cell cultures (ELISA). Type of experiment: cell-based, murine. To be noted: for levels of TNFα compared to cultures treated with vehicle and LPS: 24-hours incubation, CBD 10 but not 1 µM, linalool 100 but not 25 µM, kaempferol dose-dependently at 10, 25 and 50 µM, quercetin 10 and 25 but not 5 µM; for IC50: Mus musculus. The procedure: The BV2 murine microglial cell line is used in these studies.
The BV2 cells are cultured at 37° C. in a humidified atmosphere with 5% CO2 in high D-glucose (4.5 g/L) Dulbecco’s modified Eagle’s medium (Sigma, Rehovot, Israel) supplemented with 5% heat-inactivated fetal bovine serum, streptomycin (100 µg/ml), and penicillin (100 units/ml) and sodium pyruvate (1 mM; all from Biological Industries Ltd., Kibbutz Beit Haemek, Israel). 24 hours before experiments with LPS stimulation, the BV2 cells are split into 24 well plates, 2×10^5 cells per well, covered with 1 ml of growth medium and allowed to attach overnight. 24 hr before experiments with α-synuclein, the BV2 cells are split into 96-well plates, 50,000 (5×10^4) cells per well, covered with 200 µl of growth medium and allowed to attach overnight. Cultures of BV2 microglia cells are first treated by an individual cannabinoid, or terpene or flavonoid selected from: Cannabidiol (CBD), Δ-9-tetrahydrocannabinol (THC), Δ-8-tetrahydrocannabinol (THC), cannabigerol (CBG), cannabichromene (CBC), cannabigerolic acid (CBGA), Cannabidiolic acid (CBDA), THC acid (THCA), cannabichromenic Acid (CBCA), Cannabidivarin (CBDV), tetrahydrocannabivarin (THCV), Cannabichromevarin (CBCV), Cannabichromerocin ([…]), Cannabivarin (CBV), Cannabicitran (CBT), Cannabinol (CBN), Cannabicyclol (CBL), Cannabigerorcin (CBGO), Cannabinodiol (CBND), β-caryophyllene, β-elemene, β-myrcene, linalool, α-pinene, β-pinene, eucalyptol, alpha-terpineol, valencene, geraniol (lemonol), bisabolol, nerolidol, ocimene, terpinolene, humulene, α-terpinene, camphene, fenchol, α-phellandrene, Δ3-carene, γ-cardinene, sabinene, limonene, β-amyrin, cycloartenol, cannflavin A, cannflavin B, kaempferol, quercetin, luteolin, apigenin, canniprene, orientin, β-sitosterol, vitexin, isovitexin, and chrysin. Additional cultures of BV2 microglia cells are treated by an individual cannabinoid, with at least one additional cannabinoid, and/or terpene, and/or flavonoid, and/or celecoxib. Additional cultures are exposed to the vehicle of these compounds (cremophor, ethanol and PBS, 1:1:18 (v/v/v)) (FIG. 2A). In some studies, cultures of BV2 microglia cells are treated by a specific whole plant cannabis extract, with or without supplementation with cannabinoid(s), and/or terpene(s) and/or flavonoid(s), and/or celecoxib (FIG. 2B).
For each individual cannabinoid mentioned above, 3-4 concentrations are used, ranging from 0.1 to 10 µM. For ultra-low dose Δ9-THC the concentration used is 0.01 µM. […] For celecoxib, 3-4 concentrations are used, ranging from 0.1 to 10 µM. Two hours following the treatment, the cultures are exposed to one of the following microglia stimulators: LPS (Sigma L2630; Escherichia coli serotype O111:B4) is dissolved in D-PBS (Sigma, D8537) to a pre-stock concentration of 1 mg/ml, aliquoted and stored at -80° C. Stock solution of LPS at 10 ug/ml is prepared using sterile D-PBS, followed by filtering via 0.22 µm filter membrane, aliquoting and storing in -20° C. LPS is applied into the cell medium at a final concentration of 100 ng/ml. Poly I:C (Sigma, P1530) was first dissolved in sterile, molecular grade water to the concentration of 10 mg/ml (following the manufacturer’s instructions). This stock solution was further diluted to the concentration of 1 mg/ml in sterile PBS, and the aliquots stored in -20 °C.

[3] abbreviates: Example 4, by itself at 1, 2.5 and 5 µM.

Broadly, the IC50 is the concentration that inhibits the measured activity by half. In the case of `C=C(C)[C@@H]1CCC(C)=C[C@H]1c1c(O)cc(CCCCC)cc1O` [CBD, cannabidiol], the “sucrose preference compared with vehicle-treated groups” value in experiment [1] is reported as “significantly increased sucrose preference”. Moreover, the “levels of TNFα compared to cultures treated with vehicle and LPS” value in experiment [2] is given as “reduced”. Also, the “release of TNFα” value in experiment [2] (Example 3, 10 µM (not 1, 2.5 or 5 µM)) is recorded as “significantly inhibited”. Moreover, the “release of TNFα vs LPS-activated cultures treated with vehicle” value is given as “no effects” in experiment [2] (setting [3]); “did not affect” in experiment [2] (Example 5, by themselves, CBD 1 and 2.5 µM, quercetin 1, 2.5 and 5 µM); “no concentration of either CBD or CBDV by itself affected release of TNFα” in experiment [2] (Example 6, by itself, CBD 1, 2.5 and 5 µM, CBDV 1, 2.5, 5 and 10 µM). Moreover, the “TNFα secretion from LPS activated microglial cells” value in experiment [2] (Example 5, CBD 5 µM alone (p<0.05)) is “decreased the TNFα secretion”. Moreover, in experiment [2] (Example 7, by themselves), the “inhibition of LPS-induced TNFα secretion” value is reported as “did not produce significant inhibition”. Besides, the “LPS-induced TNFα release” value in experiment [2] (Example 25, LPS 100 ng/ml, CannA 5 and 10 µM, CBD and CannB only at 10 µM, CannC 1-10 µM, extract concentration as dominant cannabinoid) is given as “significantly inhibited”. For the same compound, the half-inhibitory concentration (IC50) in experiment [2] (BV-2, read-out: CBD IC50, LPS-induced TNFα release, Example 4, addition of 1 µM kaempferol) worked out at 2.3 µM; in experiment [2] (BV-2, read-out: CBD IC50, LPS-induced TNFα release, Example 4, addition of 2.5 µM kaempferol), 1.3 µM; in experiment [2] (BV-2, read-out: CBD IC50, LPS-induced TNFα release, Example 4, addition of 5 µM kaempferol) it was 0.8 µM; in experiment [2] (BV-2, read-out: CBD IC50, LPS-induced TNFα release, Example 5, addition of 1 µM quercetin) it was 3.8 µM; in experiment [2] (BV-2, read-out: CBD IC50, LPS-induced TNFα release, Example 5, addition of 2.5 µM quercetin), 3.2 µM; in experiment [2] (BV-2, read-out: CBD IC50, LPS-induced TNFα release, Example 5, addition of 5 µM quercetin) it was 1.8 µM. Moreover, the concentration for half-maximal inhibition (IC50) in experiment [2] (BV-2, read-out: CBD IC50, LPS-induced TNFα release, Example 6, addition of 1 µM CBDV) turned out to be 3.4 µM; in experiment [2] (BV-2, read-out: CBD IC50, LPS-induced TNFα release, Example 6, addition of 2.5 µM CBDV), 4.8 µM; in experiment [2] (BV-2, read-out: CBD IC50, LPS-induced TNFα release, Example 6, addition of 5 µM CBDV), 2.7 µM; in experiment [2] (BV-2, read-out: CBD IC50, LPS-induced TNFα release, Example 6, addition of 10 µM CBDV) it was 2.4 µM; in experiment [2] (BV-2, read-out: IC50 for TNFα inhibition), 7.2 µM; in experiment [2] (BV-2, read-out: IC50 for inhibiting LPS-induced TNFα release), 5.3 µM. For the same compound, the half-maximal inhibitory concentration (IC50) stood at 6.2 µM in experiment [2] (BV-2, read-out: IC50 for inhibiting LPS-induced TNFα release, Example 5 (FIG. 6C), by itself) and 5.4 µM in experiment [2] (BV-2, read-out: IC50 for inhibiting LPS-induced TNFα release, Example 6 (FIG. 7C), by itself).
`C=C(C)[C@@H]1CCC(C)=C[C@H]1c1c(O)cc(CCCCC)c(C(=O)O)c1O` [CBDA, Cannabidiolic acid]: the “sucrose preference compared with vehicle-treated groups” value in experiment [1] is recorded as “significantly increased sucrose preference”. The “effect on lipopolysaccharide-induced TNFα secretion” value in experiment [2] (THC 0.1, 0.5 and 1 µM, CBDA 0.2, 1 and 2 µM, CBC 0.1, 1 and 2 µM, α-pinene, β-pinene, limonene 25 or 100 µM) is “no effect”.
On to `O=c1c(O)c(-c2ccc(O)cc2)oc2cc(O)cc(O)c12` [kaempferol], for which the “sucrose preference compared with vehicle-treated groups” value in experiment [1] is listed as “significantly increased sucrose preference”. The “levels of TNFα compared to cultures treated with vehicle and LPS” value in experiment [2] is “reduced”. In addition, in experiment [2] (setting [3]), the “release of TNFα vs LPS-activated cultures treated with vehicle” value is listed as “no effects”. Besides, in experiment [2] (BV-2, Example 4 (FIG. 5C), by itself, read-out: IC50 for inhibiting LPS-induced TNFα release), the IC50 is 9.8 µM.
